The values that follow come from PMC11129186, “New Improved cGMP Analogues to Target Rod Photoreceptor Degeneration” (Journal of Medicinal Chemistry, 2024).

Common to all, as to assay type: cell-based, mouse
Data set [1] concerns 661W-A11 cells stressed with zaprinast. Briefly: Cell viability MTT assay in cells stressed with zaprinast. The settings on record: 50 μM compound, 200 μM zaprinast for 48 h. The protocol:
The neuroprotective activity of the newly developed compounds was then evaluated in 661W-A11 cells stressed with zaprinast. Viability was assessed by an MTT assay.
(§1) 661W-A11 cells were seeded in 96-well plates at a density of 6000 cells/well or in 24-well plates at a density of 20,000 cells/well. Twenty-four h after seeding, cells were pretreated with 50 μM of either CN03-Na^+ or CN03 or SP-CN03 or oxo-CN03 or dithio-CN03 for 2 h, followed by 200 μM zaprinast treatment for 48 h in the presence of the compounds. Control groups were treated with an equal volume of vehicle, H2O or DMSO.
661W-A11 cells were cultured on 96-well plates at a density of 6000 cells/well. After compound treatments, the culture medium was replaced with medium containing 1 mg/mL of MTT (Sigma) and cells were cultured for 90 min at 37 °C. Viability was assessed by MTT assay (see above for detailed procedure). OD was measured at 570 nm.

Data set [2] has the same test system. Kind of data set: Cell death TUNEL assay in cells stressed with zaprinast. The settings on record: 50 μM compound, 200 μM zaprinast for 48 h. The protocol:
Viability assay cannot discriminate between protection from cell death and possible increased proliferation induced by the treatment. To discriminate between these two responses, we analyzed cell death by the TUNEL assay that detects dying cells based on fragmented chromatin. The TUNEL assay confirmed data obtained with the MTT assay (Figure 3B,C).
as §1
661W-A11 cells were seeded in 24-well plates at a density of 20,000 cells/well. After treatments, cells were fixed with 2% paraformaldehyde for 10 min and permeabilized with 1 M Na^+ citrate and 0.1% Triton X-100 on ice for 2 min. Cells were incubated with TUNEL solution “In situ Cell Death Detection Kit” TMR Red (Roche) for 30 min at 37 °C, and cell nuclei were stained with 0.1 μg/mL 4′,6-diamidin-2-fenilindolo (DAPI). […] The quantification of percentage of dead cells was based on the ratio of TUNEL-labeled cells on the total number of cells (DAPI-labeled).

For data set [3] the test system is unchanged. Kind of data set: Dose-response curves of cell viability (MTT) under zaprinast stress. On the procedure:
For this analysis, we used the 661W-A11 cells stressed with zaprinast and exposed them to scaling concentrations of either dithio-CN03 or SP-CN03 or CN03-Na^+. The effects were evaluated by the cell viability MTT assay (Figure 5). […] Nevertheless, CN03-Na^+ and SP-CN03 reached up to 70–80% cell viability, while dithio-CN03 could protect rod photoreceptors to almost 100% cell viability at the highest doses (Figure 5). Although dithio-CN03 was considered more hydrophobic, and its entrance in the cells could have been facilitated by this feature, the calculated EC50 was nonetheless similar to more hydrophilic analogues.
661W-A11 cells were seeded in 96-well plates at a density of 6000 cells/well, and the following day they were pretreated with scaling concentrations of either CN03-Na^+ or SP-CN03 or dithio-CN03 for 2 h and then stressed with zaprinast 200 μM in the presence of the compounds for 48 h. Cell viability was assessed by MTT assay (see above for detailed procedure). OD was measured at 570 nm. Data were plotted and EC50 calculated using GraphPad Prism version 7.

As for `CCN(CC)CC.O=c1c2nc(Br)n([C@@H]3O[C@@H]4COP(=S)(S)O[C@H]4[C@H]3O)c2nc2[nH]c(-c3ccccc3)cn12` (stereo partly drawn) [dithio-CN03, Triethylammonium 8-Bromo-β-phenyl-1,N^2-ethenoguanosine-3′,5′-cyclicmonophosphorodithioate], the “protective effect on cell viability (MTT)” value in data set [1] is given as “significantly higher protective effects compared to CN03-Na^+”. Further, in data set [2], the “protection from cell death (TUNEL)” value is “highest neuroprotective activity”. Besides, the “cell viability reached at the highest doses” value in data set [3] (200 μM zaprinast for 48 h, MTT) is reported as about 100%. Also, the EC50 in data set [3] (Mus musculus, 661W-A11, 48 h, read-out: EC50 of cell viability) was 20 µM.

The term EC50 denotes the concentration at which the effect is half-maximal.
